Laboratory results reported in PMC5329948, “Caspase vinyl sulfone small molecule inhibitors prevent axonal degeneration in human neurons and reverse cognitive impairment in Caspase-6-overexpressing mice” (Molecular Neurodegeneration, 2017).

Legend:
Type in all cases: biochemical
recombinant Caspase-8 = molecular target: T1, recombinant Caspase-8 (Homo sapiens, UniProt Q14790); assay: Caspase Inhibitor Drug Screening Kit (BioVision), IETD-AFC substrate; settings: not active site titrated
T1 construct: purchased BioVision
Protocol: (§1) The half-maximal inhibitory concentrations (IC50) for NWL inhibitors (Patent publication # WO/2009/140765, WO/2010/133000, and WO/2012/140500) was determined by incubating 0 to 20 μM NWL-117 and NWL-154 with 20 nM of active site-titrated Casp6 in SB at room temperature for 5 minutes. Then, 10 μM Ac-VEID-AFC was added and fluorescence measured for 20 min at 37 °C as described above. New World Laboratories performed the IC50 determination for NWL inhibitors dissolved in dimethyl sulfoxide (DMSO) against recombinant Casp1-10 using the Caspase Inhibitor Drug Screening Kits (BioVision, San Francisco, CA) following the manufacturer’s instructions and the preferred substrates for the caspases (Caspase-1: WAD-AFC, Caspase-2: VDVAD-AFC, Caspase-3: DEVD-AFC, Caspase-4: LEVD-AFC, Caspase-5: WEHD-AFC, Casp6:VEID-AFC, Caspase-7: DEVD-AFC, Caspase-8: IETD-AFC, Caspase-9: LEHD-AFC, Caspase-10: AEVD-AFC). In transfected HCT116 cells, 0 to 100 μM NWL inhibitors were added in the culture media and left on the cells for 2 h. Cells were washed once with 1 mL ice-cold PBS, incubated on ice for 5 min with 200 μL cell lysis buffer (CLB) (50 mM HEPES, 0.1% CHAPS, 0.1 mM EDTA), and gently scraped off. Protein concentrations were determined by Bradford assay (BioRad, Mississauga, ON, CA) by measuring the absorbance at 595 nm using the BioTek Synergy H4 plate reader. […]

recombinant Caspase-4 = molecular target: T2, recombinant Caspase-4 (Homo sapiens, UniProt P49662); assay: Caspase Inhibitor Drug Screening Kit (BioVision), LEVD-AFC substrate; settings: not active site titrated
T2 construct: purchased BioVision
Protocol: as §1

[1] = molecular target: T3, recombinant active site-titrated Casp6 (Homo sapiens, UniProt P55212); assay: IC50 on in-house recombinant active site-titrated Casp6 (Ac-VEID-AFC fluorogenic assay); settings: 20 nM Casp6, 5 min preincubation at room temperature, 10 μM Ac-VEID-AFC; read-out: IC50 against recombinant active site-titrated Casp6
T3 construct: human Casp6 large subunit (amino acids 24-179, flanked by start (ATG) and stop (TAA) codons); small subunit (amino acids 194-293, preceded by a start codon); initiator Met (added start codon) (N); His; made in house; host or cells: E. coli BL21(DE3)pLysS
Protocol: Recombinant Casp6 Expression and purification: Casp6 was expressed from the pET23b(+)-Casp6-His plasmid in E. coli BL21(DE3)pLysS strain (Promega, Fitchburg, WI, USA) at 37 °C in 2xYT medium (16 g/l tryptone, 10 g/l yeast extract, 5 g/l NaCl) supplemented with 0.1 mg/ml ampicillin and 0.034 mg/ml chloramphenicol under vigorous shaking according to [46]. Casp6 expression was induced with 50 μM isopropyl β-D-1-thiogalactopyranoside (IPTG) when cell cultures reached OD595 nm of 0.6 and cells cultured at 22 °C for 16 h under vigorous shaking. […] The lysate was clarified by centrifugation (30,000 x g for 30 min at 4 °C) and loaded on Ni Sepharose Fast Flow 6 medium (GE Healthcare Life Sciences, Baie D’Urfe, QC, CA) pre-equilibrated with buffer A, washed with buffer B (50 mM Tris pH 8.5, 500 mM NaCl, 5% glycerol, 20 mM imidazole), and bound proteins eluted with a 50-300 mM linear imidazole gradient in buffer A. Fractions were assessed for recombinant Casp6 purity by SDS-PAGE and Coomassie blue staining. […] Protein concentration was measured using Quick Start Bradford 1x Dye Reagent (Bio-Rad Laboratories, Hercules, CA, USA). Active site titration assay: The concentration of Casp6 active sites was determined by active site titration assay using Z-VAD-fmk (N-benzyloxycarbonyl-Val-Ala-Asp-(O-methyl)-fluoromethylketone, MP Biomedicals, Santa Ana, CA, USA) inhibitor [46]. […]

recombinant Caspase-2 = molecular target: T4, recombinant Caspase-2 (Homo sapiens, UniProt P42575); assay: Caspase Inhibitor Drug Screening Kit (BioVision), VDVAD-AFC substrate; settings: not active site titrated
T4 construct: purchased BioVision
Protocol: as §1

recombinant Caspase-5 = molecular target: T5, recombinant Caspase-5 (Homo sapiens, UniProt P51878); assay: Caspase Inhibitor Drug Screening Kit (BioVision), WEHD-AFC substrate; settings: not active site titrated
T5 construct: purchased BioVision
Protocol: as §1

T4 sequence (P42575 whole entry): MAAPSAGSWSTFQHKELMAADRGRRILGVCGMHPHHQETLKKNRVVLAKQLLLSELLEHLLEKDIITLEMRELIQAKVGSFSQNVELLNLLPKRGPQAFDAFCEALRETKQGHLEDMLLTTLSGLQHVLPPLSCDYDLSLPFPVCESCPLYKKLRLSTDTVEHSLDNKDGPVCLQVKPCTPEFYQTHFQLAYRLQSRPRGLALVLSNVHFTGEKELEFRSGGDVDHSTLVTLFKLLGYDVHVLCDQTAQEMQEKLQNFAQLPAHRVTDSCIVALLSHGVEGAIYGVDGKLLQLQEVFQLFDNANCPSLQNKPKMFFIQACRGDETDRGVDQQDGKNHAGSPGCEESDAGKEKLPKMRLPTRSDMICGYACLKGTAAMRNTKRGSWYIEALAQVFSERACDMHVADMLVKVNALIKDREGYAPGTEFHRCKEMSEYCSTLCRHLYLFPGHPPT
T2 sequence (P49662 81-377): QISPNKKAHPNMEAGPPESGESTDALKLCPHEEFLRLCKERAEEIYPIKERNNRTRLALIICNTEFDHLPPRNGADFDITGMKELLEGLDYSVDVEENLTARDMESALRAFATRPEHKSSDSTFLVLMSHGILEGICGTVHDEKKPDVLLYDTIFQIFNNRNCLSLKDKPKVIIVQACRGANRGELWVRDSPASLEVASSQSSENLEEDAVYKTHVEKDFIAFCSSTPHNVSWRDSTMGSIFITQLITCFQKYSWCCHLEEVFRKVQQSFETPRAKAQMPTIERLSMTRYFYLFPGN
T3 sequence (P55212 24-179): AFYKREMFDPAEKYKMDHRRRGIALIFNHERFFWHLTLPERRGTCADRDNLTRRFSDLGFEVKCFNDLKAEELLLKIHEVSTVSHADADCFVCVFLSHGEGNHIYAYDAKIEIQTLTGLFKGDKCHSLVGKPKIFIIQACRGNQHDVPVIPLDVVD
T3 sequence (P55212 194-293): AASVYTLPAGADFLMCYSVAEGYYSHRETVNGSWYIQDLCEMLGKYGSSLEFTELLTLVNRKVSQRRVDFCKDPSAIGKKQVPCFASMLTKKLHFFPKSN
T1 sequence (Q14790 217-479): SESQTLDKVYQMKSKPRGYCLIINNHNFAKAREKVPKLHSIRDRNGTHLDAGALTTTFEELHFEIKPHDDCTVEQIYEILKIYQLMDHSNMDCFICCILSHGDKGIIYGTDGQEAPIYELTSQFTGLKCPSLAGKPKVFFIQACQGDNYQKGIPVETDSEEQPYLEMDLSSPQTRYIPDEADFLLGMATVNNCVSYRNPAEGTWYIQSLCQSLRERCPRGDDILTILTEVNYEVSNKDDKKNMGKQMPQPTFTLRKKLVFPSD
T5 sequence (P51878 137-434): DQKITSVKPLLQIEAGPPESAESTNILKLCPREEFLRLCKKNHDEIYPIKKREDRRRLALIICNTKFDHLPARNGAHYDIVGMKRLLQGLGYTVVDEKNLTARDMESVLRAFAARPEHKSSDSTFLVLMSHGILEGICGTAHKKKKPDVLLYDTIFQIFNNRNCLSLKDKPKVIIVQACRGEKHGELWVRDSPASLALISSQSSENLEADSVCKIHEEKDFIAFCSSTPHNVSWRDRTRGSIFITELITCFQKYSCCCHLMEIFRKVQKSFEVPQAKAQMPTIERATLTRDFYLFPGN

**Q.** With `CCC(C)[C@H](NC(=O)[C@H](CCC(=O)O)NC(=O)[C@@H](NC(=O)OCc1ccccc1)C(C)C)C(=O)N[C@H](/C=C/S(C)(=O)=O)CC(=O)O` (stereo partly shown) [NWL-117] as the compound, how does the IC50 (recombinant Caspase-8) read?
**A.** 660 nM

**Q.** What about the IC50 (recombinant Caspase-4) of the same compound?
**A.** 380 nM

**Q.** What about the IC50 [1] of the same compound?
**A.** 192 nM

**Q.** And the IC50 (recombinant Caspase-2)?
**A.** > 100000 nM

**Q.** And the IC50 (recombinant Caspase-5)?
**A.** 19500 nM

**Q.** How did the IC50 (recombinant Caspase-8) turn out when `CCC(C)[C@H](NC(=O)[C@H](CCC(=O)O)NC(=O)[C@@H](NC(=O)OCc1ccccc1)C(C)C)C(=O)N[C@H](/C=C(\Cl)S(C)(=O)=O)CC(=O)O` (stereo partly shown) [NWL-154] was run?
**A.** 530 nM

**Q.** And the IC50 (recombinant Caspase-4)?
**A.** 1800 nM

**Q.** And the IC50 [1]?
**A.** 100 nM

**Q.** What about the IC50 (recombinant Caspase-2) of the same compound?
**A.** > 100000 nM

**Q.** And the IC50 (recombinant Caspase-5)?
**A.** 4190 nM
